12 compounds from ChEMBL document CHEMBL1155194, “Synthesis and characterization of environment-sensitive fluorescent ligands for human 5-HT1A receptors with 1-arylpiperazine structure” (J Med Chem, 2009) can be followed below.

Molecules are shown by their SMILES.

The assay has as its target T1, 5-hydroxytryptamine receptor 1A (Homo sapiens, UniProt P08908).
T1 sequence (P08908 whole entry): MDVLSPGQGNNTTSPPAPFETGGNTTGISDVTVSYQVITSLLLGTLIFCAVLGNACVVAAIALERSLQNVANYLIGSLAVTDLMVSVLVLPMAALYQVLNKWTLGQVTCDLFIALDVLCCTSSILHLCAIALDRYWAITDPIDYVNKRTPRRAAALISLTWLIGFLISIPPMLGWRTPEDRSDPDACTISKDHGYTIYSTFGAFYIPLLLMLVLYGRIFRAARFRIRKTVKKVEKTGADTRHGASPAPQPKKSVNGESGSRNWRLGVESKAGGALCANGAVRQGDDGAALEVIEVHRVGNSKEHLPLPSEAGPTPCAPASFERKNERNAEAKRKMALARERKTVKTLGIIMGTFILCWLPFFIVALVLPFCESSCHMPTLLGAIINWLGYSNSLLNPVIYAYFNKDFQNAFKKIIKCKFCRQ
The experiment in a line: biochemical.

Description: Displacement of [3H]8-OH-DPAT from human recombinant 5HT1A receptor expressed in HEK293 cells after 120 mins

As a reminder, the Ki is a dissociation constant, usually derived from enzyme kinetics or from competition with a known ligand. Read a high Ki as weaker binding. For the compound `COc1ccccc1N1CCN(CCCN2C(=O)c3cccc4c(N)ccc(c34)C2=O)CC1`, affinity was put at a Ki of 116 nM. The compound `COc1ccccc1N1CCN(CCN2C(=O)c3ccc(N(C)C)cc3C2=O)CC1` registered a Ki of 15 nM. `COc1ccccc1N1CCN(CCCN2C(=O)c3ccc(N(C)C)cc3C2=O)CC1`: the Ki was 0.47 nM. For the compound `COc1ccccc1N1CCN(CCCCCN2C(=O)c3ccc(N(C)C)cc3C2=O)CC1`, the affinity, expressed as Ki, was 7.8 nM. With `COc1ccccc1N1CCN(CCNS(=O)(=O)c2cccc3c(N(C)C)cccc23)CC1`, the affinity, expressed as Ki, was 73 nM. Turning to `COc1ccccc1N1CCN(CCCCN2C(=O)c3cccc4c(N)ccc(c34)C2=O)CC1`, the Ki was determined as 6.8 nM. Under `COc1ccccc1N1CCN(CCCNS(=O)(=O)c2cccc3c(N(C)C)cccc23)CC1` stands 29 nM. The compound `COc1ccccc1N1CCN(CCCCNS(=O)(=O)c2cccc3c(N(C)C)cccc23)CC1` yielded a Ki of 151 nM. The compound `COc1ccccc1N1CCN(CCCCCNS(=O)(=O)c2cccc3c(N(C)C)cccc23)CC1` displayed a Ki of 54 nM. Take `COc1ccccc1N1CCN(CCCCCN2C(=O)c3cccc4c(N)ccc(c34)C2=O)CC1`: the Ki worked out at 0.67 nM. The same measure for `COc1ccccc1N1CCN(CCN2C(=O)c3cccc4c(N)ccc(c34)C2=O)CC1`: 44 nM; for `COc1ccccc1N1CCN(CCCCN2C(=O)c3ccc(N(C)C)cc3C2=O)CC1`: 0.5 nM.
